Experimental data: US20060009433A1, “Neuroprotective spirostenol pharmaceutical compositions” (priority 2003, published 2006)
Entries after “also recorded” stand apart in the source; their conditions may differ.

Assays:
rat PC12 neuronal cells = test: MTT assay, Aβ1-42-induced cytotoxicity in PC12 cells (Example I); conditions: MTT
NT2 cells [1] = test: NT2 cell differentiation, phase-contrast morphology; format: cell-based, human; conditions: 25 μM; 3, 6 and 12 days (comparators 6 days)
human NT2 cells = test: Trypan blue dye exclusion assay, NT2 cells; format: cell-based; conditions: 25 μM steroid, 72 hours
Description: (§1) Rat PC12 cells were cultured as previously described. Yao et al., Brain Res. 889, 181-190 (2001). Human NT2 precursor (Ntera2/D1 teratocarcinoma) cells were obtained from Stratagene (La Jolla, Calif.) and cultured following the instructions of the supplier. Differentiated human NT2 neurons (NT2N) were obtained after treatment of the NT2 precursor cells with retinoic acid. Andrews, Dev. […] Aβ was dissolved in media and used either in the aggregated (left overnight at 4° C.) or soluble (containing oligomers such as dimers and tetramers) forms examined by electrophoresis as previously described. Yao et al., Brain Res. (2001). […] Id. Cell viability was measured using the trypan blue exclusion method as previously described. Id. In brief, for these studies, cells were treated for 72 hours with steroids in the presence or absence of increasing concentrations of Aβ. At the end of the incubation, the cells were washed three times with PBS and incubated for 15 minutes with 0.1% trypan blue stain solution at room temperature. After washing three times with PBS, 0.1 N NaOH was added to the cells and trypan blue staining was quantified using the Victor quantitative detection spectrophotometer (EGG-Wallac, Gaithersburg, Md.) at 450 nm. Cell protein levels were determined in the same samples by the method of Bradford (Bradford, Anal. Biochem., 72, 248-254 (1976)), where coomassie blue staining is detected at 590 nm.
(§2) The results obtained from using MTT assay were further confirmed with the trypan blue dye exclusion assay. […] Levels of viability were measured using the trypan blue assay as described under Materials and Methods. Results are expressed as fold trypan blue stained cells per total cell protein over control untreated cells. Results shown are means±SD (n=6-12).

rat PC12 cells = test: Trypan blue dye exclusion assay, PC12 cells (Example I); format: cell-based; conditions: 100 μM steroid, 72 hours
Description: as §1, §2

Aβ = biological target: T1, Aβ (Homo sapiens, UniProt P05067); test: CPBBA displacement of radiolabeled 22R-hydroxycholesterol from Aβ (Example II); format: binding; conditions: 100 μM unlabeled compound; 50 μM Aβ
T1 construct: Aβ1-42 peptide was purchased from American Peptide Co; purchased American Peptide Co. (Sunnyvale, Calif.)
T1 sequence (P05067 672-713): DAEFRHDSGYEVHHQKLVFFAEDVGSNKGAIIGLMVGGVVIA
Description: At the end of the incubation time, samples were separated by 1.5% agarose (Type I-B) gel electrophoresis under native conditions and transferred to nitrocellulose membrane (Schleicher&Schuell, Keene, N.H.) in 10×SSC buffer. The membrane was exposed to tritium-sensitive screen and analyzed by phosphoimaging using the Cyclone Storage phosphor system (Packard BioScience). Image-densitometric analysis was performed using the OptiQuant software (Packard BioScience). […] Low molecular weight unincorporated 22R-hydroxycholesterol and derivatives are separated and eliminated during electrophoresis.

[2] = system: PC12 cells (rat pheochromocytoma neurons); test: MTT cytotoxicity assay, Aβ-induced neurotoxicity in PC12 cells (Example II); format: cell-based; conditions: for neuroprotection against Aβ-induced neurotoxicity (structure/activity discussion): PC12 cells; for neuroprotective effect compared with SP222 / neuroprotection against 0.1 μM Aβ-induced neurotoxicity / neuroprotection against 10 μM Aβ-induced neurotoxicity / neuroprotection against 1 μM Aβ-induced neurotoxicity: MTT; for neuroprotective effect compared with SP222: 0.1 μM Aβ; for neuroprotection against 0.1 μM Aβ-induced neurotoxicity / neuroprotection against 10 μM Aβ-induced neurotoxicity / neuroprotection against 1 μM Aβ-induced neurotoxicity: compounds at 30 and 50 μM, 72 hours
Description: (§3) PC12 cells (rat pheochromocytoma neurons) from ATCC (Manassas, Va.) were cultured at 37° C. and 5% CO2 in RPMI 1640 medium devoid of glutamine and supplemented with 10% fetal bovine serum and 5% horse serum. Yao Z, Drieu K and Papadopoulos V., The Gingko biloba extract EGb 761 rescues PC12 neuronal cells from β-amyloid-induced cell death by inhibiting the formation of (3-amyloid-derived diffusible neurotoxic ligands, Brain Res, 889, 181-190 (2001). Cells were seeded in 96-well plates (8×10^4 cells/well). After an overnight period of incubation, increasing concentrations of aggregated Aβ (0.1, 1 and 10 μM) were added to the cells in the presence or absence of the indicated concentrations of the SP compounds to be tested. After 72-hours incubation time various parameters, markers of cell viability, were determined. Mouse MA-10 tumor Leydig cells were maintained at 37° C. in DMEM/Ham's F12 (Biofluids, Rockville, Md.) medium supplemented with 5% heat-inactivated fetal calf serum and 2.5% horse serum in 5% CO2. Cells were plated on 96-well plates at the density of 2.5×10^4 cells/well for overnight. The cells were stimulated with the indicated concentrations of the various SP compounds in 0.2 ml/well serum-free medium for 2 hours. The culture medium was collected and tested for progesterone production by radioimmunoassay.
The cellular toxicity of Aβ was assessed using the 3-(4,5-dimethylthiazol-2-yl)-2,5-diphenyl tetrazolium bromide (MTT) assay (Trevigen, Gaithersburg, Md.). Briefly, 10 μl of the MTT solution were added to the cells cultured in 100 μl medium. After an incubation period of 4 hours, 100 μl of detergent were added and cells were incubated overnight at 37° C. Formazan blue formation was quantified at 600 nm and 690 nm using the Victor quantitative detection spectrophotometer (EGG-Wallac, Gaithersburg, Md.) and the results expressed as (DO600-DO690). […] Liu Y and Schubert D, Steroid hormones block amyloid fibril-induced 3-(4,5-dimethylthiazol-2-yl)-2,5-diphenyltetrazolium bromide (MTT) formazan exocytosis: relationship to neurotoxicity, J. Neurochem., 19, 1639-1662 (1998). For that reason, additional cytotoxicity and cell viability assays were used.
Yao et al., J. Neurochem., 83, 1110-1119 (2002); and Yao et al., The Gingko biloba extract EGb 761 rescues PC12 neuronal cells from β-amyloid-induced cell death by inhibiting the formation of β-amyloid-derived diffusible neurotoxic ligands, Brain Res., 889, 181-190 (2001). To stay close to the concentrations of Aβ present in AD brain, 0.1-10 μM concentrations of Aβ were used. The compounds tested for their neuroprotective properties were examined at 30 and 50 μM concentrations (FIGS. 9-15).

PC12 cells [3] = test: Cellular ATP levels (ATPLite-M) in Aβ-treated PC12 cells; format: cell-based, rat; conditions: 0.1 and 1.0 μM Aβ
Description: as §3
Cellular ATP concentrations were measured using the ATPLite-M™ luminescence assay (Packard BioSciences Co.). For this assay, cells were cultured on black 96-well ViewPlate™ and the ATP concentrations were measured on a TopCount NXT™ counter (Packard BioSciences Co.) following the recommendations of the manufacturer.

PC12 cells [4] = test: Membrane potential (CytoLite luminescence) in Aβ-treated PC12 cells; format: cell-based, rat; conditions: 10 μM Aβ
Description: as §3
Cells viability was also assessed using the luminescence-based kit CytoLite™ (Packard BioScience Co.) according to the recommendations of the manufacturer. Briefly, cells were cultured and treated in 96-well plates and after 72-hours incubation time, 25 μl of Activator solution was added to the cells followed by 150 μl of Amplifier solution. Luminescence was measured on a TopCount NXT™ counter (Packard BioSciences Co.) following a 5 minute precount delay.

NT2 cells [5] = test: BrdU assay, NT2 cell proliferation; format: cell-based, human; conditions: 50 μM

## CC(=O)[C@@]1(O)CC[C@H]2[C@@H]3CC=C4C[C@@H](O)CC[C@]4(C)[C@H]3CC[C@@]21C [17α-hydroxypregnenolone, 5-pregnen-3β, 17α-diol-20-one]
Rat PC12 neuronal cells; absence of Aβ
  PC12 cell viability, steroid alone: toxic to the cells

## C[C@]12CC[C@H](O)CC1=CC[C@@H]1[C@@H]2CC[C@]2(C)C(=O)CC[C@@H]12 [DHEA, 5-androsten-3β-ol-17-one]
Rat PC12 neuronal cells; 100 μM steroid
  PC12 cell viability, steroid alone at 100 μM: positive effect on cell viability
NT2 cells [1]
  effect on NT2 cell morphology (differentiation): could not be replicated
Human NT2 cells
  rescue from Aβ1-42-induced cell death: had no effect
  rescue from Aβ25-35-induced cell death: Neither 22R-hydroxycholesterol nor DHEA could rescue
Rat PC12 cells
  rescue from Aβ1-42-induced cell death: protected
  rescue from Aβ25-35-induced cell death: Neither 22R-hydroxycholesterol nor DHEA could rescue

## CC1CCC2(OC1)OC1CC3C4CC=C5CC(O)C(O)CC5(C)C4CCC3(C)C1C2C [SP227, (22R,25ζ)-(20α)-spirost-5-en-(2α,3ζ)-diol]
Aβ
  displacement of radiolabeled 22R-hydroxycholesterol binding to Aβ: 38%

## C[C@H]1CC[C@@]2(OC1)O[C@H]1C[C@H]3[C@@H]4CC=C5CC(O)CC[C@]5(C)[C@H]4CC[C@]3(C)[C@H]1[C@@H]2C (stereo partly drawn) [SP231, (22R,25S)-(20ζ)-spirost-5-en-3ζ-ol]
[2]
  neuroprotection against Aβ-induced neurotoxicity (structure/activity discussion): only SP235 is protective

## CC1CCC2(OC1)OC1CC3C4CC=C5CC(OC(=O)c6ccccc6)CCC5(C)C4CCC3(C)C1C2C [SP232, (22R,25ζ)-(20α)-spirost-5-en-3β-yl benzoate]
[2]
  neuroprotection against Aβ-induced neurotoxicity (structure/activity discussion): not effective in neuroprotection

## C[C@H]1CC[C@@]2(OC1)O[C@H]1C[C@H]3[C@@H]4CC=C5C[C@@H](O)CC[C@]5(C)[C@H]4CC[C@]3(C)[C@H]1[C@@H]2C [SP235, (22R,25S)-(20α)-spirost-5-en-3β-ol]
PC12 cells [3]
  reversal of Aβ-induced decrease in ATP levels: did not block
[2]
  neuroprotective effect compared with SP222: significantly more robust effect than SP222
  neuroprotection against 0.1 μM Aβ-induced neurotoxicity: displayed neuroprotective activity
  neuroprotection against 10 μM Aβ-induced neurotoxicity: exhibited neuroprotective activity
  neuroprotection against Aβ-induced neurotoxicity (structure/activity discussion): limited neuroprotection acting only against 0.1 μM Aβ

## CC(=O)OC1CC[C@@]2(C)C(=CC[C@H]3[C@@H]4CC(OC(C)=O)[C@H]([C@H](C)C(CCC(C)CN(C(C)=O)C(C)=O)OC(C)=O)[C@@]4(C)CC[C@@H]32)C1 (stereo partly shown) [SP237, 26-diacetylamino-(22ζ)-acetoxy-(16ζ)-acetoxy-cholest-5-en-yl acetate]
Aβ
  displacement of radiolabeled 22R-hydroxycholesterol binding to Aβ: 46%
[2]
  neuroprotection against 0.1 μM Aβ-induced neurotoxicity: displayed neuroprotective activity

## CCC(=O)O[C@H]1CC[C@@]2(C)C(=CC[C@H]3[C@@H]4C[C@@H]5O[C@@]6(CC[C@H](C)CN6C(C)=O)[C@@H](C)[C@@H]5[C@@]4(C)CC[C@@H]32)C1 [SP238, (20α)-25S-methyl-N-acetyl-(22S,26)-azacyclofurost-5-en-3β-yl propanoate]
PC12 cells [4]
  neuroprotective effect against 10 μM Aβ, membrane potential luminescence: replicated by the raise of the signal
PC12 cells [3]
  reversal of Aβ-induced decrease in ATP levels: did not block; also recorded: no effect on maintaining ATP levels
Aβ
  displacement of radiolabeled 22R-hydroxycholesterol binding to Aβ: 44%
[2]
  neuroprotective effect compared with SP222: significantly more robust effect than SP222
  neuroprotection against 0.1 μM Aβ-induced neurotoxicity: displayed neuroprotective activity
  neuroprotection against 1 μM Aβ-induced neurotoxicity: maintained their neuroprotective properties
  neuroprotection against 10 μM Aβ-induced neurotoxicity: kept this property; also recorded: exhibited neuroprotective activity
  neuroprotection against Aβ-induced neurotoxicity (structure/activity discussion): able to protect PC12 cells

## CC(C)CCC[C@@H](C)[C@H]1CC[C@H]2[C@@H]3CC=C4C[C@@H](O)CC[C@]4(C)[C@H]3CC[C@]12C [cholesterol, 5-cholesten-3β-ol]
Rat PC12 neuronal cells
  effect on toxicity of low concentrations of Aβ: accentuated the toxic effect of low concentrations of Aβ
Rat PC12 neuronal cells; Aβ1-42
  neuroprotective effect against Aβ-induced neurotoxicity: could not be replicated
NT2 cells [1]
  effect on NT2 cell morphology (differentiation): could not be replicated

## CC(=O)[C@H]1CC[C@H]2[C@@H]3CCC4=CC(=O)CC[C@]4(C)[C@H]3CC[C@]12C [progesterone]
NT2 cells [5]
  NT2 cell proliferation at 50 μM: significantly inhibited
NT2 cells [1]
  effect on NT2 cell morphology (differentiation): could not be replicated

## (20α)-25ζ-methyl-N-paratoluenesulfonyl-(22R,26)-azacyclofurost-5-en-3ζ-yl paratoluenesulfonate [SP229]
[2]
  neuroprotection against 0.1 μM Aβ-induced neurotoxicity: displayed neuroprotective activity

## (20ζ)-25ζ-methyl-N-acetyl-(22R,26)-azacyclofurost-5-en-3ζ-ol [SP226]
Aβ
  displacement of radiolabeled 22R-hydroxycholesterol binding to Aβ: 65%
[2]
  neuroprotection against Aβ-induced neurotoxicity (structure/activity discussion): did not offer neuroprotection

## (20ζ)-26-acetylamino-(22ζ)-ethoxyfurost-5-en-3ζ-yl acetate [SP228]
[2]
  neuroprotection against 0.1 μM Aβ-induced neurotoxicity: displayed neuroprotective activity

## (22R,25S)-(20α)-spirost-5-en-3β-yl succinate [SP236]
PC12 cells [3]
  reversal of Aβ-induced decrease in ATP levels: able to reverse; also recorded: blocked, although in part
[2]
  neuroprotective effect compared with SP222: significantly more robust effect than SP222
  neuroprotection against 0.1 μM Aβ-induced neurotoxicity: displayed neuroprotective activity
  neuroprotection against 1 μM Aβ-induced neurotoxicity: maintained their neuroprotective properties
  neuroprotection against 10 μM Aβ-induced neurotoxicity: exhibited neuroprotective activity
  neuroprotection against Aβ-induced neurotoxicity (structure/activity discussion): active against higher Aβ concentrations
